Test results published in patent US12129235B2, “TSPO binders” (The University Court of the University of Glasgow, priority 2018, dated 2024).

Columns and labels:
[1] = Observation after in vivo administration of ^18F-LW223
[2] = molecular target: TSPO (Rattus norvegicus, UniProt P16257); test: ^18F-LW223 PET kinetic modelling and test-retest in rats; type: in vivo; set-up: from tissue; host or cells: living Sprague-Dawley rats (brain, heart, lungs and other organs); settings: for VT: baseline, Logan modelling; for VT / Distribution volume ratio (DVR) relative to blood pool: mean±SEM, n=3
Protocol: All experiments were conducted in accordance with the local University of Edinburgh animal ethics committee and were authorized by the Home Office under the Animals (Scientific Procedures) Act 1986. 28 adult male Sprague-Dawley rats (357.1±8.1 g and 10.2±0.4 weeks), and 2 C57bl/6 (25.3±3.7 g and 10.1±0.0 weeks) were used for this study, with 2 C57bl/6 (26.0±5.3 g and 13.5±5.7 weeks) used in an additional study. The animals were housed under standard 12 h light:12 h dark conditions with food and water available ad libitum. On the day of the experiment, anesthesia was induced and maintained with 1.5-2.5% isoflurane (50/50 oxygen/nitrous oxide, 1 L/min). For imaging experiments, an intravenous (i.v.) line was established in the femoral vein or tail vein for injection of the radiotracer and the femoral artery was cannulated to allow automated blood sample collection, as previously described (Warnock et al.).
13 PET scans were performed with ^18F-LW223 (mean injected radioactivity of 19.55±2.1 MBq). Scans were acquired following i.v. bolus injection of ^18F-LW223 via tail vein or femoral vein shunt (invasive kinetic modelling experiments with β-probe automatic blood sampler) in rats. Test-retest scans were obtained in three rats following i.v. bolus of the radiotracer, with two weeks interval between test and retest imaging sessions. […] These scans were compared to baseline scans where no PK11195 was used. For displacement studies, rats received i.v. administration of ^18F-LW223 and scanned continuously for 120 min. […] A male and female mouse were initially used to derive the dosimetry estimates for ^18F-LW223 over a 4 h dynamic scan, followed by additional mice in a further study (in a study with a mean injected radioactivity of 10.83±5.6 MBq).
A commercially available β-probe system (Twilite2, Swisstrace, Switzerland) was used for the measurement of blood radioactivity as previously described (Warnock et al.). […] With data acquired in separate studies (radiometabolite experiments), the whole-blood arterial input function measured by the automatic blood sampler was corrected for the plasma-to-whole blood ratio and for metabolism in vivo.
All PET data were acquired using a preclinical PET/CT small animal scanner (nanoPET/CT, Mediso, Hungary). A CT scan (semi-circular full trajectory, maximum field of view, 480 projections, 50 kVp, 300 ms and 1:4 binning) was acquired for attenuation correction. Immediately following radiotracer administration, a 120 minutes emission scan was obtained using 3-dimentional 1:5 mode and re-binned as follows: 18×10 s; 2×30 s; 1×60 s; 2×2 min; 10×5 min; 6×10 min. PET images were reconstructed using Mediso's iterative Tera-Tomo 3D reconstruction algorithm and the following settings: 4 iterations, 6 subsets, full detector model, low regularization, spike filter on, voxel size 0.4 mm and 400-600 keV energy window. PET data were corrected for randoms, scatter and attenuation.
Image Processing and Data Analysis Reconstructed scans were imported into PMOD 3.8 software (PMOD Technologies, Switzerland). Volumes of interest (VOIs) were manually drawn around organs of interest. Time-activity curves (TACs) were generated and standardized uptake values (SUVs) calculated as concentration in the VOI divided by injected dose divided by animal weight. Kinetic modelling was performed using compartmental analysis (1-Tissue (1T) and 2-Tissue (2T) models) and graphical analysis (Logan plot and Ichise multivariate analysis) to estimate the volume of distribution (VT) in different tissues (Innis et al.; Logan; and Ichise et al.). Model fitting performance was evaluated using the Akaike information criterion (AIC) and the model selection criterion (MSC), where the preferred model had the lowest AIC and highest MSC. The selected identifiability criterion was the percentage standard error (% SE) of VT estimates. […]

[3] = Radiometabolite and arterial blood analysis; type: in vivo, rats; settings: rat; 120 minutes post-injection
Protocol: In a separate set of experiments (radiometabolite studies), the femoral artery was cannulated for blood sampling and the radiotracer was administered i.v. via tail vein. Surgical cannulation of femoral vein and artery was performed as follows: polyethylene catheters (PE50) filled with heparinized saline (20 IU/mL) were inserted into the left femoral artery or vein with the help of a stereomicroscope and securely fastened with ligatures (6-0 silk thread). Catheters were held in place with surgical glue. Body temperature was maintained by heated scanner bed or heated mat and monitored by rectal thermometer. Vital signs, including heart rate and respiration rate were monitored continuously during the experiments.
Arterial blood samples were collected at 2, 5, 10, 20, 30, 60 and 120 minutes post-radiotracer administration (69.8±9.2 MBq, n=17 rats). […] Following blood collection, all samples were kept on ice until analyzed. Radioactivity in whole blood and plasma was assessed using a well-type γ-counter using a 400-1400 keV window (Perkin Elmer Wizzard2, USA). Plasma samples (400 μL) were processed by acetonitrile denaturation and analyzed by HPLC (Ultimate2000, ThermoFisher, UK) on a Luna C18(2) column (Luna C18(2), 10×250 mm, 10 μm, Phenomenex, UK) with a mobile phase of acetonitrile/water 70/30 at a flow rate of 4 mL/min to estimate the parent fraction. […]

CC[C@@H](C)N(C)C(=O)c1nc2ccccc2c(-c2ccccc2)c1C[18F] [^18F-LW223, (R)-(N-sec-Butyl)-3-[19-fluoro]-methyl-N-methyl-4-phenylquinoline-2-carboxamide]
negative effects following administration in vivo [1]: no negative effects were apparent
test-retest inter-subject variability of DVR ([2]; brain): 16%
VT ([2]; brain): 1.46
Distribution volume ratio (DVR) relative to blood pool ([2]; brain): 0.53±0.06
test-retest inter-subject variability of DVR ([2]; heart): 2%
VT ([2]; heart): 9.48±0.03
Distribution volume ratio (DVR) relative to blood pool ([2]; heart): 2.96±0.14
test-retest inter-subject variability of DVR ([2]; lungs): 15%
VT ([2]; lungs): 5.13±0.29
Distribution volume ratio (DVR) relative to blood pool ([2]; lungs): 1.84±0.13
parent in arterial blood [3]: approximately 70%
